Source: patent US20050182129A1, “Hair growth tonic” (priority 2002, published 2005)
Entries after “also recorded” stand apart in the source; their conditions may differ.

What was measured:
[1] = test system: Human dermal papilla cells; experiment: Dermal papilla cell growth promoting activity (WST-1, spheroid culture), Test Example 5; assay type: cell-based; settings: for activity at 1 µM / activity at 4 µM / activity at 16 µM: Homo sapiens, Human dermal papilla cell, 72 hours, average of 3 wells, read-out: ΔO.D. 450 nm/620 nm (% of control)
Description: (§1) Human dermal papilla cells, which were purchased from Toyobo, were cultured in MEM (Invitrogen) containing 12% FBS.
The dermal papilla cells in passage 5 were sowed in a 96-well plate for spheroid culture to give a density of 1.5×10^4 cells/well and cultured overnight. Then, the medium was replaced by a medium to which no compound was added or a medium containing the compound and the culture was continued for additional 72 hours. After the completion of the culture, cells were counted by using a Cell Counting Kit (Wako Pure Chemicals). Five hours before the completion of the culture, WST-1 reagent at 1/10 amount per medium was added to each medium and then the optical density (O.D. 450 nm/620 nm) of the medium was measured at the completion of the culture. A positive correlation was observed between the cell number and optical density within the range of 0.25 to 4×10^4 cells/well.
In this table, each numerical value means an average of 6 wells (control group) or 3 wells (test groups). To compare the control group to the test groups, Student's t-test was employed: • *:P<0.05, **:P<0.01, ***:P<0.001.

[2] = test system: WNT-5A mRNA; experiment: Activity of decreasing WNT-5A mRNA amount (QuantiGene bDNA method), Test Example 4; assay type: cell-based; settings: Homo sapiens, Human dermal papilla cell, 24 h, human dermal papilla cells, concentration at which the mRNA amount is halved, average of 2 wells
Description: as §1
(§2) The dermal papilla cells in passage 5 were sowed in a 96-well plate to give a density of 1×10^4 cells/well and cultured overnight. Then, the medium was replaced by a medium to which no compound was added or a medium containing the compounds and the culture was continued for additional 24 hours. After the completion of the culture, WNT-5A or GAPDH mRNA amount was measured by using QuantiGene High Volume Kit (Bayer Medical) by the branched DNA (bDNA) signal amplification method (Drug Metabolism and Disposition, 28(5), 608-616 (2000)). In accordance with the protocol attached to QuantiGene High Volume Kit, cells were lysed by using Lysis Mixture and the lysis solution was added to capture plate. Next, a set of probes specific to WNT-5A or GPDH was added and allowed to react at 53° C. for 20 hours. After washing the plate by using 0.1×SSC containing 0.03% lauryl sulfate, an amplification probe comprising bDNA was added and allowed to react at 46° C. for 1 hour. After washing the plate, a labeling probe labeled with alkaline phosphatase was added and allowed to react at 46° C. for 1 hour. After washing the plate, a substrate Lumi-Phos Plus was added and allowed to react at 46° C. for 30 minutes. Then, the luminescence was measured by using WALLAC 1420ARVOsx.
The WNT-5A-specific probe set was designed based on the sequence of the coding region of human WNT-5A mRNA. As capture extenders (CEs), 10 probes (SEQ ID NOs:12 to 21) were used; as label extenders (LEs), 31 probes (SEQ ID NOs:22 to 52) were employed; and as blockers, […] (SEQ ID NOs:53 to 60) were employed.
(§3) The amounts of WNT-5A and GAPDH mRNAs are expressed in relative values (%) to the control case of adding of no compound and the concentration of a compound at which the mRNA amount is halved (IC50) is calculated as an index of WNT-5A mRNA decreasing activity of the corresponding compound.

[3] = test system: GAPDH mRNA; experiment: GAPDH mRNA amount (QuantiGene bDNA method), Test Example 4; assay type: cell-based; settings: Human dermal papilla cell; human dermal papilla cells, 24 hours, concentration at which the mRNA amount is halved, average of 2 wells
Description: as §1, §2
As GAPDH-specific probe set, use was made of bDNA probe set for human GAPDH (XenoTech LLC, B0960).
as §3

[4] = test system: WNT-5A mRNA; experiment: Decrease in WNT-5A mRNA in monkey skin organ culture (RT-PCR), Test Example 6; assay type: cell-based, Cynomolgus monkey (Macaca fascicularis); settings: 40-cycle PCR, hair follicles, 11th day of culturing, FIG. 4
Description: (§4) The dorsal skin of a Cynomolgus monkey (Macaca fascicularis) (male, 6 years old) was collected and divided into pieces (5 mm×8 mm) under a stereoscopic microscope. Then each skin tissue piece was cultured in William's Medium E (Invitrogen) to which no compound was added or Compound 7 or Compound 3 was added and which contained 10 μg/ml insulin (Sigma) and 10 ng/ml hydrocortisone (Kurabo).
On the 11th day of the culturing, hair follicles were separated from each skin tissue piece and total RNAs were extracted by using TRIzol reagent (Invitrogen). Using 200 ng portions of the total RNAs, 0.4 μM portions of primers specific to WNT-5A or glyceraldehyde3-phosphate dehydrogenase (GAPDH) [WNT-5A sense: AATGTCTTCCAAGTTCTTCCTAGTGGC (SEQ ID NO-8), WNT-5A antisense: GATGTCGGAATTGATACTGGCA (SEQ ID NO:9), GAPDH sense: ACCACAGTCC ATGCCATCAC (SEQ ID NO:10) and GAPDH antisense: TCCACCACCC TGTTGCTGTA (SEQ ID NO:11)] and SUPERSCRIPT One-Step RT-PCT with PLATINUM Taq (Invitrogen), RT-PCR was cared out in accordance with the protocol attached to SUPERSCRIPT One-Step RT-PCT with PLATINUM Taq. In brief, first strand synthesis was carried out at 50° C. for 30 minutes in a reaction system of 25 μl in total volume in accordance with the protocol attached to SUPERSCRIPT One-Step RT-PCT with PLATINUM Taq. […]

[5] = test system: hair follicles in monkey skin organ culture; experiment: Enlargement in hair bulb diameter in monkey skin organ culture, Test Example 8; assay type: cell-based, Cynomolgus monkey (Macaca fascicularis); settings: culturing for 30 days, FIGS. 6 and 7
Description: as §4, with “μg/ml of” for “μg/ml”, “ng/ml of” for “ng/ml”
On the 30th day of the culturing, all follicles contained in each skin tissue piece were separated and the diameter of bulbs was measured under a stereoscopic microscope.
FIGS. 6 and 7 show the results. In these figures, each numerical value means mean±S.E. of bulb diameters of all follicles contained in each skin tissue piece. To compare the control group with the test groups, Student's t-test was employed: • *:P<0.05.

[6] = test system: stumptailed macaque suffering from alopecia; experiment: Hair growth test on stumptailed macaque, Test Example 9; assay type: in vivo, stumptailed macaque (Macaca arctoides); settings: lotion containing 0.3% compound
Description: To the forehead of a stumptailed macaque (Macaca arctoides) (male, 14 years old) suffering from alopecia, 1 mL of a lotion containing 0.3% Compound 7 was applied once a day 5 times per week for 6 months. Before the initiation of the application, the alopecia site in the forehead was marked by tattoo. The skin part including the tattoo was photographed before the initiation of the application and after applying for 6 months.

Row | Compound | activity at 1 µM [1] | activity at 4 µM [1] | activity at 16 µM [1] | IC50 [2] | IC50 [3] | amplified WNT-5A cDNA fragment [4] | average bulb diameter of the follicles vs control [5] | growth of dermal papilla cells ([1]; no concentration stated) | alopecia in the forehead ([6]; 1 mL once a day 5 times per week for 6 months, FIG. 8) | thick terminal hairs ([6]; after applying for 6 months) | vellus hairs ([6]; after applying for 6 months)
1 | C[C@@H]1C[C@@H]2O[C@H]2CC/C=C/C(=O)Cc2c(Cl)c(O)cc(O)c2C(=O)O1 [Compound 3] | 92.9 ± 1.6% | 92.9 ± 9.9% | 244 ± 33.4% | 3.16 µM | 58 µM | remarkably decreased | significantly higher; also recorded: enlarges the hair bulb diameter | – | – | – | –
2 | C[C@@H]1C[C@@H]2O[C@H]2CC/C=C/[C@H](O)Cc2c(Cl)c(O)cc(O)c2C(=O)O1 [Compound 7] | 82.6 ± 3.9% | 170 ± 10.4% | 195 ± 12.7% | 4.07 µM | > 120 µM | remarkably decreased | enlarges the hair bulb diameter; also recorded: significantly higher | excellent effect of promoting the growth | clearly ameliorated | increased | decreased
